Measurements from patent US20220287995A1, “COMPOSITIONS AND METHODS FOR INHIBITING BACTERIAL VIRULENCE AND FLIM-BASED DEVICE AND METHOD FOR ANTIBIOTIC SUSCEPTIBILITY TESTING” (THE REGENTS OF THE UNIVERSITY OF CALIFORNIA, priority 2019, published 2022).
“Also recorded” adds a separate entry of the source.

Experiments:
[1] = test system: surface-attached P. aeruginosa; test: Image-based virulence (host killing) assay with amoeba host cells and calcein-AM; type: cell-based, Pseudomonas aeruginosa; settings: for host-killing activity (host killing index): surface-attached wild-type P. aeruginosa in rich (PS:DB) medium, supplemented at 3 hours at 0.2%, assessed after 6 hours of growth, amoeba host cells
Procedure: P. aeruginosa cells were assayed using an image-based virulence assay as described previously (12, 50). P. aeruginosa strains were cultured in PS:DB, diluted 1:100 into 60×15 mm plastic petri dishes (Corning, Corning, N.Y.), cultured for 4 to 6 hours by shaking at 100 rpm, and harvested. Planktonic cells were assayed by transferring 10 μL of culture from the petri dish to a new petri dish, mixing with an equal volume of D. discoideum that were grown to an OD600 of 0.2-0.5, and immobilizing by placing an agar pad on top of the mixture (FIG. 11C). Agar pads were made using Bacto agar at a concentration of 1%, DB buffer, and 1 μM calcein acetoxymethyl (AM) ester (Molecular Probes, Eugene, Oreg.), and were cut into 1.5×1.5 cm squares (12, 50). Surface-attached cells were assayed by aspirating planktonic cells from the culture, washing with DB buffer to remove planktonic cells, mixing with an equal volume of D. discoideum, and immobilizing by placing an agar pad on top of the mixture (FIG. 11C) (50). The immobilized planktonic or surface-attached P. aeruginosa and D. discoideum were incubated at room temperature for 1 hour and imaged using fluorescence microscopy. The host killing index (12, 50) was computed as the average ratio of calcein-AM fluorescence to cell area in individual amoeba cells for 30 to 200 cells in each experiment.
Fluorescence microscopy to assess calcein-AM fluorescence was performed using a Nikon Eclipse Ti-E microscope (Nikon, Melville, N.Y.) containing Nikon 10× Plan Fluor Ph1 (0.3 NA) and 20×S Plan Fluor Nikon (0.45 NA) objectives, a Sola light engine (Lumencor, Beaverton, Oreg.), an LED-DA/FI/TX filter set (Semrock, Rochester, N.Y.) containing a 409/493/596 dichroic and 474/27 nm and 525/45 nm filters for excitation and emission, respectively, and a Hamamatsu Orca Flash 4.0 V2 camera (Hamamatsu, Bridgewater, N.J.). Images were acquired using Nikon NIS-Elements and analyzed using custom built software written previously (12) in Matlab (Mathworks, Natick, Mass.).
For experiments in which strains cultured in PS:DB were supplemented with individual carbon sources (FIG. 5A-D), pyruvic acid, citric acid, […], glycerol, or glucose was added to cultures at a final concentration of 0.2% at 3 hours following a 1:100 dilution from an overnight culture. Cultures were harvested after 1 additional hour of growth for measurements of fluorescence lifetime and NADH and NAD^+ concentrations. For experiments in which surface-attached strains that were cultured in PS:DB media were treated with antimycin A (FIG. 5E-F), 10 μM antimycin A dissolved in 0.1% ethanol, 0.1% ethanol, alone, or 10 μM antimycin A dissolved in 0.1% ethanol and 0.2% citric acid were added after 3 hours of growth following a 1:100 dilution from an overnight culture. Host killing was measured after an additional 1 to 3 hours of growth (total of 4 to 6 hours of growth).

P. aeruginosa = test: Fluorescence lifetime imaging microscopy (FLIM) phasor g-values of P. aeruginosa; type: cell-based, Pseudomonas aeruginosa; settings: for enzyme-bound NADH pool: surface-attached P. aeruginosa treated with carbon source; for fluorescence lifetime g-value / change in FLIM g-value: surface-attached; for fluorescence lifetime g-value: modified minimal medium, single carbon source at 0.2%; for change in FLIM g-value: rich (PS:DB) medium, carbon source 0.2% added at 3 hours, harvested after 1 additional hour
Procedure: Fluorescence lifetime measurements were performed using a custom-built multiphoton microscope setup based on an Olympus FV1000 system and an Olympus IX81 microscope (Olympus, Waltham, Mass.) as described previously (68). The FLIM microscope uses an 80 MHz ultrafast Ti:Sapphire Mai Tai laser (Spectra-physics, Santa Clara, Calif.) set at 740 nm for mulitphoton excitation. The setup used a 690-nm SP dichroic-460/80 nm filter pair for separating emission and a PlanApo N Olympus oil immersion 60× (1.42 NA) objective (Olympus, Waltham, Mass.), which is capable of bacterial single-cell resolution imaging. An H7422P-40 photomultiplier tube module (Hamamatsu, Bridgewater, N.J.) and A320 FastFLIM Box (ISS, Champaign, Ill.) were used to measure fluorescence lifetime. Image acquisition was controlled by SimFCS software version 4 (64-bit) (Laboratory for Fluorescence Dynamics, Irvine, Calif.). Planktonic and surface-attached cells were isolated by modifying a protocol described previously (12, 50) (FIG. 11A).
Masks for bacterial cells were created through SimFCS using fluorescence intensity images and image intensity thresholding (FIG. 11B). Fluorescence lifetimes within the masked areas were transformed using
The microscope was calibrated before each session by setting the fluorescence lifetime obtained for 10 μM rhodamine 110 (Sigma, St. Louis, Mo.) to 4.0 ns. The laser power was set to 20% (<3 mW at back aperture of the microscope) using an acousto-optic modulator (AA Opto Electronic, Orsay, France). Sub-cellular fluorescence lifetimes (FIG. 1A) were collected using the 20× digital zoom mode at a rate of 1.7 sec/frame. All other P. aeruginosa measurements were performed using the 6× digital zoom mode using the same frame rate. For all measurements, 40 sequential frames were acquired to generate a single FLIM image.
P. aeruginosa strains were cultured overnight in PS:DB, diluted 1:100 into 35 mm glass-bottom dishes (MatTek Corporation, Ashland, Mass.) containing the same medium, and cultured for 4 to 6 hours (FIGS. 2E-F, 4A, 5A, and 8C). Alternatively, strains were cultured overnight in minimal medium A, diluted 1:100 into modified minimal media A with single carbon sources in culture tubes (FIGS. 6D-E and 7A-B, D) or glass-bottom dishes and cultured to an OD600 of 0.2 (FIG. 2E-F).
Planktonic cells were transferred to a new glass-bottom dish, immobilized using an agar pad, and imaged immediately (FIG. 11A). Agar pads were made using 1% Bacto agar (BD, Franklin Lakes, N.J.) and DB buffer (1, 2) or modified minimal medium A containing no carbon source for strains that were cultured in PS:DB or modified minimal medium, respectively, and were cut into 1.5×1.5 cm squares. Surface-attached cells were isolated by aspirating the supernatant from the dish, washing the dish to remove planktonic cells with DB buffer or modified minimal medium with no carbon source for strains cultured in PS:DB or modified minimal medium, respectively, and placing an agar pad on the dish surface, and were imaged immediately. Imaging was performed at room temperature.
For experiments involving FLIM measurements of the effects of antimycin A (FIG. 7D), P. aeruginosa were grown in culture tubes to saturation in modified minimal medium A containing 0.2% citrate, diluted 1:100 into the same medium in culture tubes, supplemented with 10 μM antimycin A (Sigma, St. Louis, Mo.) with 0.1% ethanol or with 0.1% ethanol, cultured to an OD600 of 0.2, and immediately measured for fluorescence lifetime. Fluorescence lifetimes for pyocyanin and pyoverdine (FIG. 7C) were measured using solutions of 6.2 mM pyocyanin (P0046, Sigma, St. Louis, Mo.) in DMSO and 5 mg/mL pyoverdine (P8124, Sigma, St. Louis, Mo.) in deionized water, respectively. For FIG. 6D, cells with fluorescence intensities below a value of 1.0, as reported by the SimFCS software, were excluded from the analysis. […]

| Structure (SMILES) | effect on the earlier virulence induction by antimycin A ([1]; co-treatment at 3 hours with 0.2% citrate and 10 μM antimycin A in 0.1% ethanol, surface-attached) | host-killing activity (host killing index) [1] | enzyme-bound NADH pool (P. aeruginosa) | fluorescence lifetime g-value (P. aeruginosa) | change in FLIM g-value (P. aeruginosa) |
| --- | --- | --- | --- | --- | --- |
| O=C(O)CC(O)(CC(=O)O)C(=O)O [citrate] | inhibited | inhibited virulence; also recorded: abolished host-killing activity | decreased | increasing g-values | greatest increases |
| OCC(O)CO [glycerol] | – | no effect on host-killing activity | relatively small impacts | increasing g-values | smallest changes |
